Data taken from patent US10724949B2, “Cuvette for detecting bacteria and determining their susceptibility to antibiotics” (BacterioScan LTD., priority 2005, dated 2020).

Tested on: E. coli
Assay: Light scattering (speckles image difference plots) test of bacterial susceptibility to an antibiotic agent in a filtered urine sample
Assay type: cell-based
Details: gentamicin 1% in test cuvette
Text: Background signal originated by particles suspended in the sample of fluid that are larger than the bacteria are excluded by mechanically filtering according to the method of the present invention. However there are sources and light scatterers other than the bacteria that can contribute a stationary background signal. Such signals are typically originated by stationary particles present within the illuminated space, impurity of the light source, defects in, and or particles contaminating, the optical components. Therefore a difference plot is computed for excluding stationary background according to a preferred embodiment of the present invention. The intensity measured in every pixel of a speckles image is subtracted from the intensity measured in the same pixel of a preceding speckles image to form a difference plot. […]
For determining the susceptibility of bacteria to an antibiotic agent, an average value of at least two averaged derivatives computed first for a test cuvette, immediately following the introduction of an antibiotic agent, are compared to an average of the same number of averaged derivatives computed for speckles images received a few minutes later, preferably after more than 5 minutes. The antibiotic agent for which the difference between these averaged derivatives is the larger is determined. […]

gentamicin
concentration of non-stationary scatterers (difference plots of speckles images) (urine containing E. coli 10^5 CFU/ml, difference plot 30 minutes later vs immediately following introduction (FIG. 9B, 9C)): significant reduction | values of the averaged derivative of the concentration of scatterers in time (normalised by their maximal value) (urine containing E. coli, a few minutes after the introduction of the antibiotics (FIG. 9D)): significant reduction (of a few tens of percents)
